# Source: patent publication US20130029942A1, “COMPOUNDS AND THERAPEUTICAL USES THEREOF” (Myrexis, Inc., priority 2003, published 2013)
# Tested on: P388 murine leukemia cell line
# Assay: P388 cytotoxicity (ATP-Lite, 72 hours)
# Assay type: cell-based
# Conditions: Mus musculus, P388, 72 hours
# Description: A P388 murine leukemia cell line was obtained from NCI, Frederick, Md. P388 cells were cultured in RPMI-1640 supplemented with 10% fetal bovine serum, 2 mM Glutamax, 1 mM sodium pyruvate, 0.1 mM non-essential amino acids and 10 mM HEPES. Cells were grown at 37° C. in a humidified 5% CO2 atmosphere. Exponentially growing P388 cells were plated at 5,000 cells/well in a 96-well flat-bottomed microtiter plate (Corning, Costar #3595). […] Cellular viability was determined 72 hours later by measuring intracellular ATP with ATP-Lite assay system. The effect of compounds on cell viability was calculated by comparing the ATP levels of cells exposed to test compound with those of cells exposed to DMSO. […] Data was analyzed by Prism software (GraphPad; San Diego, Calif.) by fitting it to a sigmoidal dose response curve.
row,Structure (SMILES),IC50
1,"COc1ccc(N(C)c2nc(C)nc3ccc(N)cc23)cc1F [Example 215, N^4-(3-Fluoro-4-methoxy-phenyl)-2,N^4-dimethyl-quinazoline-4,6-diamine]",3 nM
2,"COc1ccc(N(C)c2nc(CN)nc3ccccc23)cc1F [Example 234, (2-Aminomethyl-quinazolin-4-yl)-(3-fluoro-4-methoxy-phenyl)-methyl-amine]",11 nM
3,"Cc1nc(N(C)c2ccc(OCC(=O)O)cc2)c2ccccc2n1 [Example 144, {4-[Methyl-(2-methyl-quinazolin-4-yl)-amino]phenoxy}-acetic acid]",1700 nM
4,"COC(=O)COc1ccc(N(C)c2nc(C)nc3ccccc23)cc1 [Example 143, {4-[Methyl-(2-methyl-quinazolin-4-yl)-amino]phenoxy}-acetic acid methyl ester]",2200 nM
5,"COc1ccc(N(C)c2nc(CCl)nc3ccccc23)cc1Cl [Example 242, (3-Chloro-4-methoxy-phenyl)-(2-chloromethyl-quinazolin-4-yl)-methyl-amine]",10 nM
6,"COc1ccc(N(C)c2nc(C)nc3c2CCCC3)cc1 [Example 188, (4-Methoxy-phenyl)-methyl-(2-methyl-5,6,7,8-tetrahydro-quinazolin-4-yl)-amine]",2 nM
7,"CCOc1ccc(N(C)c2nc(C)nc3ccc([N+](=O)[O-])cc23)cc1 [Example 207, (4-Ethoxy-phenyl)-methyl-(2-methyl-6-nitro-quinazolin-4-yl)-amine]",17 nM
8,"COc1ccc(N(C)c2nc(N(C)CCCN)nc3ccccc23)cc1 [Example 227, N^2-(3-Amino-propyl)-N^4-(4-methoxy-phenyl)-N^2,N^4-dimethyl-quinazoline-2,4-diamine]",27 nM
9,"COc1ccc(N(C)c2nc(C)nc3ccc(Br)cc23)cc1 [Example 245, (6-Bromo-2-methyl-quinazolin-4-yl)-(4-methoxy-phenyl)-methyl-amine]",2 nM
10,"COc1ccc(N(C)c2nc(C)nc3ccc(C#N)cc23)cc1 [Example 249, 4-[(4-Methoxy-phenyl)-methyl-amino]-2-methyl-quinazoline-6-carbonitrile]",20 nM
11,"CNc1nc2c(c(N(C)c3ccc(OC)cc3)n1)CCC2 [Example 200, N^4-(4-Methoxy-phenyl)-N^2,N^4-dimethyl-6,7-dihydro-5H-cyclopentapyrimidine-2,4-diamine]",7 nM
12,"COc1ccc(N(C)c2nc(CN)nc3ccc(Br)cc23)cc1 [Example 219, (2-Aminomethyl-6-bromo-quinazolin-4-yl)-(4-methoxy-phenyl)-methyl-amine]",250 nM
13,"COc1ccc(N(C)c2nc(-c3nnn[nH]3)nc3ccccc23)cc1 [Example 247, (4-Methoxy-phenyl)-methyl-[2-(1H-tetrazol-5-yl)-quinazolin-4-yl]-amine]",60 nM
14,"COc1ccc(N(C)c2nc(CC#N)nc3ccccc23)cc1 [Example 206, {4-[(4-Methoxy-phenyl)-methyl-amino]-quinazolin-2-yl}-acetonitrile]",2 nM
15,"CNc1nc2c(c(N(C)c3ccc(OC)cc3)n1)CCCC2 [Example 192, N^4-(4-Methoxy-phenyl)-N^2,N^4-dimethyl-5,6,7,8-tetrahydro-quinazoline-2,4-diamine]",19 nM
16,"COc1ccc(N(C)c2nc(C)nc3ccc([N+](=O)[O-])cc23)c(F)c1 [Example 221, (2-Fluoro-4-methoxy-phenyl)-methyl-(2-methyl-6-nitro-quinazolin-4-yl)-amine]",58 nM
17,"CCOc1c(Cl)cc(N(C)c2nc(CCl)nc3ccccc23)cc1Cl [Example 257, (2-Chloromethyl-quinazolin-4-yl)-(3,5-dichloro-4-ethoxy-phenyl)-methyl-amine]",2400 nM
18,"COc1ccc(N(C)c2nc(C)nc3ccc(N)cc23)c(F)c1 [Example 222, N^4-(2-Fluoro-4-methoxy-phenyl)-2,N^4-dimethyl-quinazoline-4,6-diamine]",6 nM
19,"Cc1nc(N(C)c2ccc(N(C)C(=O)OC(C)(C)C)cc2)c2ccccc2n1 [Example 204, Methyl-{4-[methyl-(2-methyl-quinazolin-4-yl)-amino]-phenyl}-carbamic acid tert-butyl ester]",460 nM
20,"CCOc1ccc(N(C)c2nc(C)nc3ccc(Br)cc23)cc1F [Example 246, (6-Bromo-2-methyl-quinazolin-4-yl)-(4-ethoxy-3-fluoro-phenyl)-methyl-amine]",11 nM
21,"COc1ccc(N(C)c2nc(NCCO)nc3c2CCCC3)cc1 [Example 194, 2-{4-[(4-Methoxy-phenyl)-methyl-amino]-5,6,7,8-tetrahydro-quinazolin-2-ylamino}-ethanol]",20 nM
22,CCOc1ccc(N(C)c2nc(CN)nc3ccccc23)cc1Cl [Example 261],9 nM

row,Structure (SMILES),IC50
1,"CNCCCNc1nc(N(C)c2ccc(OC)cc2)c2ccccc2n1 [Example 228, N^4-(4-Methoxy-phenyl)-N^4-methyl-N^2-(3-methylamino-propyl)-quinazoline-2,4-diamine]",900 nM
2,"COc1ccc(N(C)c2nncc3ccc(F)cc23)cc1 [Example 195, (7-Fluoro-phthalazin-1-yl)-(4-methoxy-phenyl)-methyl-amine]",1500 nM
3,"COc1ccc(N(C)c2nc(N(C)CCCN(C)C)nc3ccccc23)cc1 [Example 183, N^2-(3-Dimethylamino-propyl)-N^4-(4-methoxy-phenyl)-N^2,N^4-dimethyl-quinazoline-2,4-diamine]",490 nM
4,"COc1ccc(N(C)c2nc(CNCCCO)nc3ccccc23)cc1 [Example 256, 3-({4-[(4-Methoxy-phenyl)-methyl-amino]-quinazolin-2-ylmethyl}-amino)-propan-1-ol]",1800 nM
5,"CCOc1nc(N(C)c2ccc(OC)cc2)c2ccccc2n1 [Example 182, (2-Ethoxy-quinazolin-4-yl)-(4-methoxy-phenyl)-methyl-amine]",2300 nM
6,"COc1ccc(N(C)c2nc(NCCCCN)nc3ccccc23)cc1 [Example 184, N^2-(4-Amino-butyl)-N^4-(4-methoxy-phenyl)-N^4-methyl-quinazoline-2,4-diamine]",500 nM
7,"CCOc1ccc(N(C)c2nc(CN)nc3cccc(F)c23)cc1 [Example 239, (2-Aminomethyl-5-fluoro-quinazolin-4-yl)-(4-ethoxy-phenyl)-methyl-amine]",22 nM
8,"CCOc1ccc(N(C)c2nc(C)nc3ccccc23)cc1F [Example 253, (4-Ethoxy-3-fluoro-phenyl)-methyl-(2-methyl-quinazolin-4-yl)-amine]",3 nM
9,"COc1ccc(N(C)c2nc(N(C)C)nc3ccccc23)cc1OC [Example 168, N^4-(3,4-Dimethoxy-phenyl)-N^2,N^2,N^4-trimethyl-quinazoline-2,4-diamine]",45 nM
10,"COc1ccc(N(C)c2nc(CN3CCCCC3=O)nc3ccccc23)cc1 [Example 252, 1-{4-[(4-Methoxy-phenyl)-methyl-amino]-quinazolin-2-ylmethyl}-piperidin-2-one]",1000 nM
11,"COc1ccc(N(C)c2nc(C)nc3ccc(CN)cc23)cc1 [Example 259, (6-Aminomethyl-2-methyl-quinazolin-4-yl)-(4-methoxy-phenyl)-methyl-amine]",773 nM
12,"COc1ccc(N(C)c2nc(C)nc3ccc([N+](=O)[O-])cc23)cc1F [Example 210, (3-Fluoro-4-methoxy-phenyl)-methyl-(2-methyl-6-nitro-quinazolin-4-yl)-amine]",57 nM
13,"COc1ccc(N(C)c2nc(OC(C)C)nc3ccccc23)cc1 [Example 156, (2-Isopropoxy-quinazolin-4-yl)-(4-methoxy-phenyl)-methyl-amine]",6 nM
14,"CN(c1ccc(O)cc1)c1nc(CN)nc2ccccc12 [Example 230, 4-[(2-Aminomethyl-quinazolin-4-yl)-methyl-amino]-phenol]",1700 nM
15,"COc1ccc(N(C)c2nc(NCCCO)nc3ccccc23)cc1 [Example 180, 3-{4-[(4-Methoxy-phenyl)-methyl-amino]-quinazolin-2-ylamino}-propan-1-ol]",5 nM
16,"COc1ccc(N(C)c2nc(CNC(=O)[C@H](C)N)nc3ccccc23)cc1 [Example 238, (S)-2-Amino-N-{4-[(4-methoxy-phenyl)-methyl-amino]-quinazolin-2-ylmethyl}-propionamide]",12 nM
17,"CCOc1ccc(N(C)c2nc(CN)nc3ccccc23)cc1 [Example 211, (2-Aminomethyl-quinazolin-4-yl)-(4-ethoxy-phenyl)-methyl-amine]",15 nM
18,"Cc1nc(N(C)c2ccc(OC(F)F)cc2)c2cc([N+](=O)[O-])ccc2n1 [Example 209, (4-Difluoromethoxy-phenyl)-methyl-(2-methyl-6-nitro-quinazolin-4-yl)-amine]",490 nM
19,"Cc1nc(N(C)c2ccc(OC(C)C)cc2)c2cc([N+](=O)[O-])ccc2n1 [Example 224, (4-Isopropoxy-phenyl)-methyl-(2-methyl-6-nitro-quinazolin-4-yl)-amine]",170 nM
20,"COc1ccc(N(C)c2nc(NCCO)nc3ccc(N)cc23)cc1 [Example 189, 2-{6-Amino-4-[(4-methoxy-phenyl)-methyl-amino]-quinazolin-2-ylamino}-ethanol]",460 nM
21,"CCOc1ccc(N(C)c2nc(CN)nc3ccccc23)cc1F [Example 235, (2-Aminomethyl-quinazolin-4-yl)-(4-ethoxy-3-fluoro-phenyl)-methyl-amine]",5 nM
22,"COc1ccc(N(C)c2nc(NCCN)nc3ccc(OC)cc23)cc1 [Example 175, N^2-(2-Amino-ethyl)-6-methoxy-N^4-(4-methoxy-phenyl)-N^4-methyl-quinazoline-2,4-diamine]",5000 nM
